Data reported in US20240207292A1, “BORONIC ACID COMPOUNDS, COMPOSITIONS AND METHODS” (Trustees of Tufts College, priority 2021, published 2024).
Read-outs that look alike come from different tables or passages of the source. Square brackets hold non-standard residues; d marks the D form. Peptide text beside a SMILES is read from it. * marks the point of attachment. X1 = O=C1CN2CCN3CCN(CC(=O)*)CCN(CC2)CC(=O)O[CH2][Lu]([CH2]CO1)[CH2]COC(=O)C3; boroPro = OB(O)[C@@H]1CCCN1*

Legend:
[1] = tested on: HEK-mFAP tumor xenografts; experiment: Efficacy and survival study, single injection of [^177Lu]-6522; assay type: in vivo, Fox Chase SCID mice
Protocol: The aim of the study was to assess the therapeutic efficacy of a single injection of [^177Lu]-6522 by evaluation tumor growth delay and median survival.
[^177Lu]-6522 is provided as described in Example 24 above. The following treatment compositions were prepared: • 1. Vehicle (selected formulation, 100 μL) • 2. Precursor (6522 compound) (80 μL) • 3. [.^77Lu]-6522 15 MBq (80 μL) • 4. [.^77Lu]-6522 30 MBq (80 μL) • 5. [.^77Lu]-6522 60 MBq (80 μL)
A total of 30 HEK-mFAP tumor-bearing mice were used for the study. […]
Mouse health checks were performed throughout the study on a weekly basis including body weight measurements. Tumor growth was monitored weekly with caliper measurements (tumor volume=length×width^2×0.5). […]. Mice were housed 5 to a cage with ad libitum access to food and water in 20° C. ambient temperature, 40%-50% humidity, and 12-hour light/12-hour dark cycle.
The mice were randomized into 5 groups, n=6 mice per group. The treatment compositions (1 through 5 above) were injected IV through the tail vein using a catheter (mounted with a 30 Ga needle). Injected doses were determined using a well counter (Capintec calibration). Tumor growth was monitored weekly with caliper measurements, and the mice were followed for survival.

[2] = tested on: HEK-mFAP tumor xenografts
[3] = Stability of bortezomib with excipients in water, propyleneglycol (PG) or butylene glycol (BG) at 1 mg/mL, 50° C.; assay type: physicochemical; conditions: with N-Acetyl-L-methionine
Protocol: In Examples 1-3 below, Tables 1, 2 and 3 summarize the effectiveness of sulfur compounds in stabilizing bortezomib such as against oxidation and decomposition reactions. For each of the following Examples 1-3, the following procedures were used: Samples preparation: 100 mg of the API (active pharmaceutical ingredient) was suspended into 100 mL of water or other ratioed solvents, mixed well by using a vortex mixer and sonicator (with gentle warm if necessary) to make a 1 mg/mL of solution A. 10 mg of each excipient was weighed into avial, and 1 mL of solution A was added, mixed well to give the test solution B (10:1 of excipient/API). Took 100 μL of solution B and diluted into 1 mL with solution A to give the test solution C (1:1 of excipient/API). Took 100 μL of solution C and diluted into 1 mL with solution A to give the test solution D (0.1:1 of excipient/API). For solid powderform of Bortezomib with the excipients, method in US 2005/0282742 A1 was adopted. […]
Aqueous formulations of bortezomib together with a number of sulfur-containing compounds in varying weight ratios were evaluated for stability over time based on purity of Bortezomib in water, propyleneglycol (PG) or butylene glycol (BG) at 1 mg/mL, 50° C.

Structure (SMILES): CC(C)[C@H](NC(=O)CNC(=O)CNC(=O)CN1CCN2CCN3CCN(CC1)CC(=O)O[CH2][Lu]([CH2]COC(=O)C2)[CH2]COC(=O)C3)C(=O)N[C@H](C)C(=O)N1CCC[C@H]1B(O)O [[^177Lu]-6522] (X1-GGV[dA]-boroPro)
- survival benefit ([1]; 15 and 30 MBq groups): did not translate in a survival benefit
- tumor growth delay ([1]; 15 and 30 MBq groups): tumor growth delay was observed
- survival benefit compared to the vehicle or precursor group ([1]; 60 MBq single IV injection): statically significant survival benefit
- kidneys uptake ([2]; 4 h p.i., IV): 2.35 ± 0.51 % ID/g
- tumor uptake ([2]; 4 h p.i., IV, HEK-mFAP tumor-bearing mice): 33.04 ± 5.29 % ID/g
- Blood uptake, Mean (% ID/g) ([2]; 4 h p.i., IV): 0.3063 % ID/g
- Blood uptake, Mean (% ID/g) ([2]; 24 h p.i., IV): 0.0085 % ID/g
- Blood uptake, Mean (% ID/g) ([2]; 48 h p.i., IV): 0.0029 % ID/g
- Blood uptake, Mean (% ID/g) ([2]; 168 h p.i., IV): 0.0015 % ID/g
- Bone uptake, Mean (% ID/g) ([2]; 4 h p.i., IV): 1.8037 % ID/g
- Bone uptake, Mean (% ID/g) ([2]; 24 h p.i., IV): 0.2658 % ID/g
- Bone uptake, Mean (% ID/g) ([2]; 48 h p.i., IV): 0.4106 % ID/g
- Bone uptake, Mean (% ID/g) ([2]; 168 h p.i., IV): 0.3959 % ID/g
- Brain uptake, Mean (% ID/g) ([2]; 4 h p.i., IV): 0.0281 % ID/g
- Brain uptake, Mean (% ID/g) ([2]; 24 h p.i., IV): 0.0036 % ID/g
- Brain uptake, Mean (% ID/g) ([2]; 48 h p.i., IV): 0.0033 % ID/g
- Brain uptake, Mean (% ID/g) ([2]; 168 h p.i., IV): 0.0020 % ID/g
- Heart uptake, Mean (% ID/g) ([2]; 4 h p.i., IV): 0.1528 % ID/g
- Heart uptake, Mean (% ID/g) ([2]; 24 h p.i., IV): 0.0332 % ID/g
- Heart uptake, Mean (% ID/g) ([2]; 48 h p.i., IV): 0.0311 % ID/g
- Heart uptake, Mean (% ID/g) ([2]; 168 h p.i., IV): 0.0256 % ID/g
- Kidneys uptake, Mean (% ID/g) ([2]; 4 h p.i., IV): 2.3525 % ID/g
- Kidneys uptake, Mean (% ID/g) ([2]; 24 h p.i., IV): 0.9585 % ID/g
- Kidneys uptake, Mean (% ID/g) ([2]; 48 h p.i., IV): 0.5318 % ID/g
- Kidneys uptake, Mean (% ID/g) ([2]; 168 h p.i., IV): 0.1670 % ID/g
- Liver uptake, Mean (% ID/g) ([2]; 4 h p.i., IV): 0.3774 % ID/g
- Liver uptake, Mean (% ID/g) ([2]; 24 h p.i., IV): 0.1585 % ID/g
- Liver uptake, Mean (% ID/g) ([2]; 48 h p.i., IV): 0.1237 % ID/g
- Liver uptake, Mean (% ID/g) ([2]; 168 h p.i., IV): 0.0725 % ID/g
- Lung uptake, Mean (% ID/g) ([2]; 4 h p.i., IV): 0.3331 % ID/g
- Lung uptake, Mean (% ID/g) ([2]; 24 h p.i., IV): 0.0306 % ID/g
- Lung uptake, Mean (% ID/g) ([2]; 48 h p.i., IV): 0.0312 % ID/g
- Lung uptake, Mean (% ID/g) ([2]; 168 h p.i., IV): 0.0257 % ID/g
- Muscle uptake, Mean (% ID/g) ([2]; 4 h p.i., IV): 0.4649 % ID/g
- Muscle uptake, Mean (% ID/g) ([2]; 24 h p.i., IV): 0.0315 % ID/g
- Muscle uptake, Mean (% ID/g) ([2]; 48 h p.i., IV): 0.0518 % ID/g
- Muscle uptake, Mean (% ID/g) ([2]; 168 h p.i., IV): 0.0604 % ID/g
- Pancreas uptake, Mean (% ID/g) ([2]; 4 h p.i., IV): 0.2167 % ID/g
- Pancreas uptake, Mean (% ID/g) ([2]; 24 h p.i., IV): 0.0347 % ID/g
- Pancreas uptake, Mean (% ID/g) ([2]; 48 h p.i., IV): 0.0275 % ID/g
- Pancreas uptake, Mean (% ID/g) ([2]; 168 h p.i., IV): 0.0197 % ID/g
- Skin uptake, Mean (% ID/g) ([2]; 4 h p.i., IV): 0.9769 % ID/g
- Skin uptake, Mean (% ID/g) ([2]; 24 h p.i., IV): 0.1158 % ID/g
- Skin uptake, Mean (% ID/g) ([2]; 48 h p.i., IV): 0.0906 % ID/g
- Skin uptake, Mean (% ID/g) ([2]; 168 h p.i., IV): 0.0837 % ID/g
- Small intestine uptake, Mean (% ID/g) ([2]; 4 h p.i., IV): 0.2091 % ID/g
- Small intestine uptake, Mean (% ID/g) ([2]; 24 h p.i., IV): 0.0580 % ID/g
- Small intestine uptake, Mean (% ID/g) ([2]; 48 h p.i., IV): 0.0499 % ID/g
- Small intestine uptake, Mean (% ID/g) ([2]; 168 h p.i., IV): 0.0277 % ID/g
- Spleen uptake, Mean (% ID/g) ([2]; 4 h p.i., IV): 0.2587 % ID/g
- Spleen uptake, Mean (% ID/g) ([2]; 24 h p.i., IV): 0.1418 % ID/g
- Spleen uptake, Mean (% ID/g) ([2]; 48 h p.i., IV): 0.1340 % ID/g
- Spleen uptake, Mean (% ID/g) ([2]; 168 h p.i., IV): 0.1437 % ID/g
- Stomach uptake, Mean (% ID/g) ([2]; 4 h p.i., IV): 0.1706 % ID/g
- Stomach uptake, Mean (% ID/g) ([2]; 24 h p.i., IV): 0.0528 % ID/g
- Stomach uptake, Mean (% ID/g) ([2]; 48 h p.i., IV): 0.0331 % ID/g
- Stomach uptake, Mean (% ID/g) ([2]; 168 h p.i., IV): 0.0210 % ID/g
- Tumor uptake, Mean (% ID/g) ([2]; 4 h p.i., IV): 33.0435 % ID/g
- Tumor uptake, Mean (% ID/g) ([2]; 24 h p.i., IV): 12.9944 % ID/g
- Tumor uptake, Mean (% ID/g) ([2]; 48 h p.i., IV): 7.6749 % ID/g
- Tumor uptake, Mean (% ID/g) ([2]; 168 h p.i., IV): 3.9910 % ID/g
- kidneys uptake ([2]; day 7 p.i., IV): 0.17 ± 0.02 % ID/g
- localization in tumor and normal tissue ([2]; up to 168 h p.i.): high localization in tumor xenografts and low normal tissue uptake

Structure (SMILES): CSCC[C@H](NC(C)=O)C(=O)O [N-Acetyl-L-methionine, N-acetyl-L-methionine]
- protection of bortezomib [3]: essentially complete protection
